According to patent publication US20040191842A1, “Chemopreventive and therapeutic aspects of polyphenolic compositions and assays” (Medical College of Georgia Research Institute, Inc., priority 2002, published 2004):
Entries after “also recorded” stand apart in the source; their conditions may differ.

Assays:
p57 (KIP2) = format: cell-based, human; conditions: for p57 expression, carcinogen alone: 0.12 μM BaP or 10 μM NNK alone
Procedure: Cell treatments. For 24 hours treatments, exponentially growing cells with 40% confluency (to minimize differentiation and spontaneous apoptosis) were either maintained in 50 μM EGCG (2.29 mg/100 ml) or 0.2 mg/ml of GTPPs in tissue culture flasks (25 cm^2). Control flasks contained cells without any treatment. To test whether BaP or NNK interfere with the induction of p57, the human keratinocytes were treated with 0.12 μM BaP, or 10 μM NNK, either alone or in combination with 50 μM EGCG. To examine the time course of p57 induction, cells were treated with 50 μM EGCG and harvested for Western analysis at 30 minutes, 2 hours, 6 hours, and 24 hours. The human keratinocytes were treated when the cell density reached 85-90% confluency (to mimic the epithelium).
In a parallel series of experiments, treatment with EGCG was performed with 30 micrograms per milliliter (μg/ml) cycloheximide added to the keratinocyte media 30 minutes prior to the addition of EGCG. The dose-response experiments were performed using EGCG concentrations at 30, 50 100, and 200 μM in the culture media for 24 hours.
Western blot analysis. Cells from different treatment groups were lysed in RIPA buffer (1% NP-40, 1% sodium deoxycholate, 0.1% SDS, 0.15 M NaCl, 0.01 M sodium phosphate, pH 7.2, and 1% Trasylol) containing proteinase inhibitors (1 mM PMSF, 1 μg/ml each of aprotinin, leupeptin, and pepstatin). The concentration of protein in each sample was determined using the BioRad DC Protein Assay and spectrophotometry. Fifty micrograms (μg) of protein from each sample and a BioRad molecular weight standard marker were run on a 10% SDS-PAGE, followed by transfer to nitrocellulose membranes. Nonspecific binding to membranes was blocked with 10% nonfat milk. Specific primary polyclonal (rabbit) antibody against p57 and a horse radish peroxidase-conjugated goat anti-rabbit secondary antibody were used in conjunction with the ECL Chemiluminescence Kit and membranes were exposed to radiographic films for detection.

NHEK [1] = assay: Intracellular ROS levels (DFDA assay), NHEK; format: cell-based, human; conditions: 5 mM diamide, 1-minute incubation
Procedure: Measurement of intracellular ROS levels. The ROS assay measures the accumulation of intracellular ROS levels. The non-fluorescent dye DFDA passively diffuses into cells, where the acetates are cleaved by intracellular esterases. […] Thus, values of the fluorescence in the cell cultures are constantly rising in this assay. […] The intracellular ROS levels were measured by using a fluorescence plate reader (BIO-TEK FL600, Bio-Tek Instruments, Inc., Winooski, Vt.), at an excitation wavelength of 485 nm and an emission wavelength of 530 nm.

OSC-2 cells [2] = assay: Intracellular ROS levels (DFDA assay), OSC-2 cells; format: cell-based, human; conditions: 5 mM diamide or relatively high H2O2, 60 minutes
Procedure: (§1) Measurement of intracellular ROS levels. The ROS assay measures the accumulation of intracellular ROS levels. The non-fluorescent dye DFDA passively diffuses into cells, where the acetates are cleaved by intracellular esterases. […] Thus, values of the fluorescence in the cell cultures are constantly rising in this assay. Cells (1.5×10^4 cells/well) were incubated with Hallam's physiological saline (HPS) containing DFDA (10 μM) in a 96-well microplate for 30 minutes at 37° C. After the incubation, cells were washed three times with HPS and then incubated with HPS containing EGCG (15-200 μM) or diamide (5 mM) for the indicated time periods. The intracellular ROS levels were measured by using a fluorescence plate reader (BIO-TEK FL600, Bio-Tek Instruments, Inc., Winooski, Vt.), at an excitation wavelength of 485 nm and an emission wavelength of 530 nm.
as §1, with “assay (DFDA assay)” for “assay”, “dye dichlorofluorescein diacetate (DFDA)” for “dye DFDA”, “this assay due to the accumulation of ROS.” for “this assay.”, “EGCG (50-200” for “EGCG (15-200”, “indicated times.” for “indicated time periods.”

OSC-2 and OSC-4 cells [3] = assay: BrdU incorporation, OSC-2 and OSC-4 cells with exogenous catalase; format: cell-based, human; conditions: 200 U/ml catalase, 200 μM EGCG, 24 h
Procedure: DNA synthesis assay. DNA synthesis was analyzed by a BrdU cell proliferation assay kit (Oncogene Research Products, Boston, Mass.). […] After the treatment, cells were labeled with BrdU for 2 hours at 37° C. and reacted with anti-BrdU antibody. Unbound antibody in each well was removed by rinsing, and horseradish peroxidase-conjugated goat anti-mouse IgG antibody was added to each well. The color reaction to visualize the secondary antibody was carried out according to the protocol provided by the manufacturer.

caspase-3 = assay: Caspase-3 activity, OSC-2 and OSC-4 cells pretreated with catalase; format: cell-based, human; conditions: 200 U/ml catalase, 24 hour
Procedure: Caspase-3 activity assay. The caspase-3 apoptosis detection kit (Santa Cruz Biotechnology, Inc., Santa Cruz, Calif.) was used to measure caspase-3 activity. Cells (10^5 cells/well) were plated in triplicate in a 24-well tissue culture plate. […] To each well, 100 μl of 2×reaction buffer was added with 10 mM dithiothreitol. Finally, 5 μl of DEVD-AFC substrate was added to each well containing cell lysates. The reaction mixtures were incubated for 1 hour at 37° C., and caspase-3 activity in each well was measured using a fluorescence microplate reader ([…]luor Plus, Tecan US, Research Triangle Park, N.C.) at a wavelength of 405 nm for excitation and 505 nm for emission.

OSC-2 and OSC-4 cells [4] = assay: MTT assay, OSC-2 and OSC-4 cells pretreated with catalase, 3-AT or NAC; format: cell-based, human
Excerpt: (§2) Succinate dehydrogenase activity assay (MTT assay).

OSC-2 cells [5] = assay: MTT assay (mitochondrial SDH activity), OSC2 (OSC-2) cells
Procedure: This method detects the activity of mitochondrial succinate dehydrogenase (SDH). In a 96-well plate, 1.5×10^4 cells were seeded in each well. After variety of treatments, 100 μl of 2% MTT was added to each well and the plate was incubated at 37° C. for 30 minutes. 100 μl of 0.2 M Tris (pH 7.7) with 4% formalin was added to each well. After incubation at room temperature for 5 minutes, liquid was removed and the wells were allowed to dry. Each well was rinsed with 200 μl water followed by addition of 100 μl DMSO (6.35% 0.1 N NaOH in DMSO) to each well. The coloration was measured by a Thermo MAX microplate reader (Molecular Devices Corp. Sunnyvale, Calif. using wavelengths of 562 nm. Experiments were repeated three times with triplicate samples for each experiment.
This method directly detects the activity of mitochondrial succinate dehydrogenase (SDH). Changes in SDH activity is a measurement of cell viability when stress is introduced in cell culture through chemical or physical means. Cells (1.5×10^4 cells/well) were seeded in a 96-well microplate and treated with the indicated doses of EGCG for 24 hours. After the treatment, the cells in each well were washed with 200 μl of phosphate-buffered saline (PBS), incubated with 100 μl of 2% MTT in a solution of 0.05 M Tris, 0.5 mM MgCl2, 2.5 mM CoCl2, and 0.25 M disodiumn succinate as substrate (Sigma) at 37° C. for 30 minutes. Cells were fixed in situ by the addition of 100 μl of 4% formalin in 0.2 M Tris (pH 7.7), and after a 5 minute incubation at room temperature liquid was removed and the wells were allowed to dry. Each well was rinsed with 200 μl water and cells were solubilized by the addition of 100 μl of 6.35% 0.1 N NaOH in DMSO. The colored formazan product was measured by a Thermo MAX micro plate reader (Molecular Devices Corp., Sunnyvale, Calif.) at a wavelength of 562 nm. […]
This method directly detects the activity of mitochondrial succinate dehydrogenase (SDH). […] Solubilized colored formazan product was measured using a Thermo MAX microplate reader (Molecular Devices Corp., Sunnyvale, Calif.) at a wavelength of 562 nm.

NHEK [6] = assay: MTT assay (SDH activity), NHEK; format: cell-based, human
Excerpt: as §2

OSC-4 cells = assay: MTT assay (SDH activity), OSC-4 cells; format: cell-based, human
Procedure: MTT [3-(4,5-dimethylthiazol-2-yl)-2,5-diphenyl tetrazolium bromide] assay. This method directly detects the activity of mitochondrial succinate dehydrogenase (SDH). Changes in SDH activity is a measurement of cell viability when stress is introduced in cell culture through chemical or physical means. Cells (1.5×10^4 cells/well) were seeded in a 96-well microplate and treated with the indicated doses of EGCG for 24 hours. After the treatment, the cells in each well were washed with 200 μl of phosphate-buffered saline (PBS), incubated with 100 μl of 2% MTT in a solution of 0.05 M Tris, 0.5 mM MgCl2, 2.5 mM CoCl2, and 0.25 M disodiumn succinate as substrate (Sigma) at 37° C. for 30 minutes. Cells were fixed in situ by the addition of 100 μl of 4% formalin in 0.2 M Tris (pH 7.7), and after a 5 minute incubation at room temperature liquid was removed and the wells were allowed to dry. Each well was rinsed with 200 μl water and cells were solubilized by the addition of 100 μl of 6.35% 0.1 N NaOH in DMSO. The colored formazan product was measured by a Thermo MAX micro plate reader (Molecular Devices Corp., Sunnyvale, Calif.) at a wavelength of 562 nm. Experiments were repeated three times with triplicate samples for each experiment.

C[C@@H]1C[C@@H]([C@H](O)CC2CC(=O)NC(=O)C2)C(=O)[C@@H](C)C1 [cycloheximide, reference compound]
p57 protein levels with cycloheximide (p57 (KIP2); 30 μg/ml cycloheximide plus 50 μM EGCG): gradual decline in p57 protein levels

CN(C)C(=O)/N=N/C(=O)N(C)C [diamide, reference compound]
intracellular ROS levels vs endogenous (NHEK [1]): induced ROS
ROS accumulated in OSC-2 cells relative to OSC-4 cells (OSC-2 cells [2]): doubled that in OSC-4 cells; also recorded: approximately two

CN(CCCC(=O)c1cccnc1)N=O [NNK, reference compound]
p57 expression, carcinogen alone (p57 (KIP2)): did not alter p57 expression

catalase
effect of exogenous catalase on BrdU incorporation with EGCG (OSC-2 and OSC-4 cells [3]): had no effect on the rates of BrdU incorporation
effect of exogenous catalase on EGCG-induced caspase 3 activation (caspase-3): partially inhibited EGCG-induced caspase 3 activation
effect of exogenous catalase on EGCG-induced SDH reduction in OSC-4 cells (OSC-2 and OSC-4 cells [4]; 200 U/ml catalase, 200 μM EGCG): partially reversed the effects of 200 μM EGCG
effect of exogenous catalase on EGCG-induced SDH reduction (OSC-2 and OSC-4 cells [4]; 200 U/ml catalase, 200 μM EGCG, 24 h): had no effect on this reduction

c1ccc2c(c1)cc1ccc3cccc4ccc2c1c34 [BaP, reference compound]
p57 expression, carcinogen alone (p57 (KIP2)): did not alter p57 expression

CC(=O)N[C@@H](CS)C(=O)O [NAC, N-acetyl-L-cysteine]
effect of NAC on EGCG-induced cytotoxicity (OSC-2 and OSC-4 cells [4]; 10 mM NAC 2 hour pretreatment): failed to rescue both cell lines from EGCG-induced cytotoxicity
effect of NAC on H2O2 cytotoxicity (OSC-2 and OSC-4 cells [4]; 10 mM NAC 2 hour pretreatment, H2O2 250 and 500 μM): significantly inhibited the cytotoxic effect of H2O2

OO [H2O2, hydrogen peroxide]
SDH activity (OSC-2 cells [5]; 50 μM H2O2, 24 hour): had no effect on the SDH activity
H2O2 concentration needed to cause […]% reduction of SDH activity (OSC-2 cells [5]; 24 hours): 250 µM
SDH activity remained (NHEK [6]; 1 mM H2O2, 24 hours): 75%
reduction of SDH activity (NHEK [6]; 1 mM H2O2, 24 hours): 25%
SDH activity (OSC-4 cells; 100 μM H2O2): had no significant effect on SDH activity
H2O2 concentration needed to cause […]% reduction of SDH activity (OSC-4 cells; 24 hours): 250 µM
ROS accumulated in OSC-2 cells relative to OSC-4 cells (OSC-2 cells [2]): approximately two

Nc1nc[nH]n1 [3-AT, 3-amino-1,2,4-triazole]
susceptibility of NHEK to EGCG cytotoxicity after 3-AT (NHEK [6]; pretreatment with 3-AT): did not become susceptible to EGCG cytotoxicity
effect of 3-AT on EGCG-induced decline of SDH activity (OSC-2 and OSC-4 cells [4]; 30 μM 3-AT 2 hours, 200 μM EGCG): had no significant effect on the decline of mitochondrial SDH activity
